A value given as a limit tells only on which side of the number the result lay.

The first experiment deals with T1, hP2X4 (human purinergic P2X receptor subtype 4) (Homo sapiens, UniProt Q99571).
T1 sequence (Q99571 1-404 isoform Q99571-2): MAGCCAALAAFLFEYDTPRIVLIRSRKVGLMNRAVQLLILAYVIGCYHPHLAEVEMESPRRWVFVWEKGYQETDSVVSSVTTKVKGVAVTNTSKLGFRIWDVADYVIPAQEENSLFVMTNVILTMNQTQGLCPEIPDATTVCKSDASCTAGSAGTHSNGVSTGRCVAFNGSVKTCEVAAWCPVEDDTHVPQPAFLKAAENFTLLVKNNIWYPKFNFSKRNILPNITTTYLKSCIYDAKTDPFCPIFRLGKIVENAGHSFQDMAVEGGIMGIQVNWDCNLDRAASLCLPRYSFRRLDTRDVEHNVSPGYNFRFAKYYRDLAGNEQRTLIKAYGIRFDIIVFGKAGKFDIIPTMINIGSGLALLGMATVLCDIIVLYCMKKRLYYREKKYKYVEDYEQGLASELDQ
The experiment in a line: FLIPR assay of intracellular calcium increase induced by activation of hP2X4 expressed in HEK293 cells (agonist BZ-ATP 2.5 μM). Conditions: HEK293 cells stably expressing hP2X4, FLIPR, class symbols, read-out: P2X4 IC50. Format: cell-based. The procedure:
The antagonist property of the compounds disclosed herein was determined using the FLIPR (fluorescence imaging plate reader) method, wherein the compounds are inhibitors for the intracellular calcium increase induced by activation of hP2X4 (human purinergic P2X receptor subtype 4, accession No. NM_001256796.2) expressed in HEK293 cells (human renal epithelial cell line, ATCC).
HEK293 cells stably expressing hP2X4 were cultured in DMEM high glucose medium containing 10% FBS (fetal bovine serum, Biosera, FB-1058/500), 1% penicillin-streptomycin (Gibco, 15140-122) and 1 mg/mL G418 (CABIOCHE, 345810) in a cell incubator (37° C., […]). Cells at 400,000 cells/mL were seeded into a 384-well plate (10,000 cells/well) 18-24 h prior to the FLIPR experiment and then incubated overnight in a cell incubator. On the day of the experiment, the medium was discarded and the cells were washed in an FLIPR buffer (0.3 mL of probenecid (Thermo, P36400), 0.6 mL of 1 M HEPES (Invitrogen, 15630080) and 29.1 mL of HBSS (Invitrogen, 14065056) per 30 mL of the buffer). Each well was added with 20 μL of 0.5× Calcium 6 fluorescent dye (Molecular Devices, R8190) and then the cells were subjected to dye-loading incubation at 37° C. for 1.5 h. Each well was added with 10 μL of respective test compound (dissolved in DMSO at a concentration of 10 mM and serially diluted with buffer) or vehicle and the mixture was equilibrated for 30 min at room temperature. The cell plate was then placed in the FLIPR for baseline fluorescence measurements (excitation at 485 nm and emission at 525-535 nm). An agonist (BZ-ATP (Sigma, B6396) at a final concentration of 2.5 μM) or a vehicle (ultrapure water) was then added at 10 μL/well, fluorescence values were measured for 2 min at 1-second intervals, and finally the output fluorescence counts were analyzed.
In general terms: A change in cytosolic calcium serves as a functional read-out for many receptors and channels.
Take `NS(=O)(=O)c1cc(NC(=O)Cc2ccccc2Cl)cc2nn(CC3CCC(O)CC3)cc12` (centres unmarked) [Compound 108]: the half-maximal inhibitory concentration (IC50) (in general, the concentration that inhibits the measured activity by half) lay in the range of 50 to 200 nM.

For the compound `NS(=O)(=O)c1cc(NC(=O)Cc2ccccc2Cl)cc2c1cnn2CC1CCCC1` [Compound 31-B, 2-(2-chlorophenyl)-N-(1-(cyclopentylmethyl)-4-sulfamoyl-1H-indazol-6-yl)acetamide], the half-inhibitory concentration (IC50) is ≤ 10 nM.

With `Cc1ccccc1CC(=O)Nc1cc([S@@](C)(=N)=O)c2cn(Cc3ccc(F)cc3)nc2c1` [Compound 139, (S)—N-(2-(4-fluorophenylmethyl)-4-(S-methylsulfonimidoyl)-2H-indazol-6-yl)-2-(o-phenylmethyl)acetamide], the IC50 lay within 200 to 5000 nM.

As for `CC(c1ccc(F)cc1)n1ncc2c(S(N)(=O)=O)cc(NC(=O)Cc3ccccc3Cl)cc21` (centres unmarked) [Compound 40-B, 2-(2-chlorophenyl)-N-(1-(1-(4-fluorophenyl)ethyl)-4-sulfamoyl-1H-indazol-6-yl)acetamide], the concentration for half-maximal inhibition (IC50) is ≤ 10 nM.

With `C[S@@](=N)(=O)c1cc(NC(=O)Cc2ccccc2Cl)cc2nn(Cc3ccc(F)cc3)cc12` [Compound 138A, (R)-2-(2-chlorophenyl)-N-(2-(4-fluorophenylmethyl)-4-(S-methylsulfonimidoyl)-2H-indazol-6-yl)acetamide], the IC50 fell in the range of 200 to 5000 nM.

As for `NS(=O)(=O)c1cc(NC(=O)Cc2ccccc2Cl)cc2nn(C(=O)c3ccc(F)cc3)cc12` [Compound 42-A, 2-(2-chlorophenyl)-N-(2-(4-fluorobenzoyl)-4-sulfamoyl-2H-indazol-6-yl)acetamide], the IC50 fell in the range of 10 to 50 nM.

On to `NS(=O)(=O)c1cc(NC(=O)Cc2ccccc2Cl)cc2nn(CC3CCCCC3)cc12` [Compound 32-A, 2-(2-chlorophenyl)-N-(2-(cyclohexylmethyl)-4-sulfamoyl-2H-indazol-6-yl)acetamide], for which the IC50 is ≤ 10 nM.

For the compound `COc1ccc(Cn2ncc3c(S(N)(=O)=O)cc(NC(=O)Cc4ccccc4Cl)cc32)c(F)c1` [Compound 83, 2-(2-chlorophenyl)-N-(1-(2-fluoro-4-methoxybenzyl)-4-sulfamoyl-1H-indazol-6-yl)acetamide], the half-maximal inhibitory concentration (IC50) was ≤ 10 nM.

For the compound `NS(=O)(=O)c1cc(NC(=O)Cc2ccccc2Cl)cc2nn(C(F)(F)C3CC3)cc12` [Compound 20, 2-(2-chlorophenyl)-N-(2-(cyclopropyldifluoromethyl)-4-sulfamoyl-2H-indazol-6-yl)acetamide], the half-maximal inhibitory concentration (IC50) was 10 to 50 nM.

For `Cc1ccccc1CC(=O)Nc1cc([S@](C)(=N)=O)c2cn(Cc3ccc(F)cc3)nc2c1` [Compound 139A], the IC50 was in the range of 200 to 5000 nM.

Regarding `COc1ccc(Cn2cc3c(S(N)(=O)=O)cc(NC(=O)Cc4ccccc4Cl)cc3n2)cn1` [Compound 94], the concentration for half-maximal inhibition (IC50) was ≤ 10 nM.

As to `CS(=O)(=O)CCn1cc2c(S(N)(=O)=O)cc(NC(=O)Cc3ccccc3Cl)cc2n1` [Compound 30, 2-(2-chlorophenyl)-N-(2-(2-(methylsulfonyl)ethyl)-4-sulfamoyl-2H-indazol-6-yl)acetamide], the concentration for half-maximal inhibition (IC50) fell in the range of 10 to 50 nM.

Consider `C[S@](=N)(=O)c1cc(NC(=O)Cc2ccccc2Cl)cc2nn(Cc3ccc(F)cc3)cc12` [Compound 138, (S)-2-(2-chlorophenyl)-N-(2-(4-fluorophenylmethyl)-4-(S-methylsulfonimidoyl)-2H-indazol-6-yl)acetamide], for which the IC50 is 200 to 5000 nM.

For `NS(=O)(=O)c1cc(NC(=O)Cc2ccccc2Cl)cc2nn(C(F)C3CC3)cc12` (centres unmarked) [Compound 19, 2-(2-chlorophenyl)-N-(2-(cyclopropylfluoromethyl)-4-sulfamoyl-2H-indazol-6-yl)acetamide], the IC50 lay within 10 to 50 nM.

`NS(=O)(=O)c1cc(NC(=O)Cc2ccccc2Cl)cc2nn(CCF)cc12` [Compound 11, 2-(2-chlorophenyl)-N-(2-(2-fluoroethyl)-4-sulfamoyl-2H-indazol-6-yl)acetamide]: the IC50 was ≤ 10 nM.

On to `Cc1ccc(Cn2ncc3c(S(N)(=O)=O)cc(NC(=O)Cc4ccccc4Cl)cc32)cc1` [Compound 92A, 2-(2-chlorophenyl)-N-(1-(4-methylbenzyl)-4-sulfamoyl-1H-indazol-6-yl)acetamide], for which the half-maximal inhibitory concentration (IC50) is ≤ 10 nM.

Consider `NS(=O)(=O)c1cc(NC(=O)Cc2ccccc2Cl)cc2c1cnn2CC1CC1` [Compound 15-B, 2-(2-chlorophenyl)-N-(1-(cyclopropylmethyl)-4-sulfamoyl-1H-indazol-6-yl)acetamide], for which the half-inhibitory concentration (IC50) lay in the range of 10 to 50 nM.

For `CCC1(n2cc3c(S(N)(=O)=O)cc(NC(=O)Cc4ccccc4Cl)cc3n2)CC1` [Compound 18, 2-(2-chlorophenyl)-N-(2-(1-ethylcyclopropyl)-4-sulfamoyl-2H-indazol-6-yl)acetamide], the IC50 was in the range of 10 to 50 nM.

Consider `CC(C)OCCn1ncc2c(S(N)(=O)=O)cc(NC(=O)Cc3ccccc3Cl)cc21` [Compound 26-B, 2-(2-chlorophenyl)-N-(1-(2-isopropoxyethyl)-4-sulfamoyl-1H-indazol-6-yl)acetamide], for which the IC50 is 200 to 5000 nM.

In the case of `NS(=O)(=O)c1cc(NC(=O)Cc2ccccc2Cl)cc2nn(CCO)cc12` [Compound 27-A, 2-(2-chlorophenyl)-N-(2-(2-hydroxyethyl)-4-sulfamoyl-2H-indazol-6-yl)acetamide], the concentration for half-maximal inhibition (IC50) is 200 to 5000 nM.

Take `NS(=O)(=O)c1cc(NC(=O)Cc2ccccc2Cl)cc2c1cnn2CC1CCOCC1` [Compound 141A, 2-(2-chlorophenyl)-N-(4-sulfamoyl-1-((tetrahydro-2H-pyran-4-yl)methyl)-1H-indazol-6-yl)acetamide]: the IC50 lay within 50 to 200 nM.

With `NS(=O)(=O)c1cc(NC(=O)Cc2ccccc2Cl)cc2nn(CCN3CCOCC3)cc12` [Compound 118, 2-(2-chlorophenyl)-N-(2-(2-morpholinoethyl)-4-sulfamoyl-2H-indazol-6-yl)acetamide], the IC50 fell in the range of 200 to 5000 nM.

Take `COCCn1ncc2c(S(N)(=O)=O)cc(NC(=O)Cc3ccccc3Cl)cc21` [Compound 25A]: the IC50 is 10 to 50 nM.

Take `NS(=O)(=O)c1cc(NC(=O)Cc2ccccc2Cl)cc2c1cnn2C(=O)C1CC1` [Compound 16-A, 2-(2-chlorophenyl)-N-(1-(cyclopropylcarbonyl)-4-sulfamoyl-1H-indazol-6-yl)acetamide]: the 50% inhibitory concentration (IC50) lay in the range of 10 to 50 nM.

On to `NS(=O)(=O)c1cc(NC(=O)Cc2ccccc2Cl)cc2nc(-c3ccc(Cl)cc3)[nH]c12` [Compound 54, 2-(2-chlorophenyl)-N-(2-(4-chlorophenyl)-7-sulfamoyl-1H-benzo[d]imidazol-5-yl)acetamide], for which the IC50 lay in the range of 200 to 5000 nM.

Consider `NS(=O)(=O)c1cc(NC(=O)Cc2ccccc2Cl)cc2cnn(CCO)c12` [Compound 48-B, 2-(2-chlorophenyl)-N-(1-(2-hydroxyethyl)-7-sulfamoyl-1H-indazol-5-yl)acetamide], for which the IC50 fell in the range of 200 to 5000 nM.

`NS(=O)(=O)c1cc(NC(=O)Cc2ccccc2Cl)cc2nn(CCOC3CC3)cc12` [Compound 28, 2-(2-chlorophenyl)-N-(2-(2-cyclopropyloxyethyl)-4-sulfamoyl-2H-indazol-6-yl)acetamide]: the IC50 fell in the range of 10 to 50 nM.

`NS(=O)(=O)c1cc(NC(=O)Cc2ccccc2Cl)cc2c1cnn2CC1CCCCC1` [Compound 32-B, 2-(2-chlorophenyl)-N-(1-(cyclohexylmethyl)-4-sulfamoyl-1H-indazol-6-yl)acetamide]: the IC50 lay in the range of 10 to 50 nM.

For the compound `NS(=O)(=O)c1cc(NC(=O)Cc2ccccc2Cl)cc2[nH]ccc12` [Compound 56, 2-(2-chlorophenyl)-N-(4-sulfamoyl-1H-indol-6-yl)acetamide], the IC50 was 10 to 50 nM.

For `CC1(n2cc3c(S(N)(=O)=O)cc(NC(=O)Cc4ccccc4Cl)cc3n2)CC1` [Compound 22, 2-(2-chlorophenyl)-N-(2-(1-methylcyclopropyl)-4-sulfamoyl-2H-indazol-6-yl)acetamide], the IC50 fell in the range of 10 to 50 nM.

Staying with this experiment, now noted: HEK293 cells stably expressing hP2X4, FLIPR, numeric values, read-out: P2X4 IC50.
Regarding `N#Cc1nc2c(S(N)(=O)=O)cc(NC(=O)Cc3ccccc3Cl)cc2[nH]1` [Compound 51, 6-(2-chlorophenylacetamide)-2-nitrile-4-sulfonamide benzimidazole], the IC50 was 934 nM.

On to `NS(=O)(=O)c1cc(NC(=O)Cc2ccccc2Cl)cc2cn(C(F)F)nc12` [Compound 49, 2-(2-chlorophenyl)-N-(2-(difluoromethyl)-7-sulfamoyl-2H-indazol-5-yl)acetamide], for which the IC50 came to 89.5 nM.

For the origin of these results see patent US12503444B2, “Compound containing benzene ring and application thereof” (WUHAN LL SCIENCE AND TECHNOLOGY DEVELOPMENT CO., LTD., priority 2019, dated 2025).
